Measured values published in patent publication US12076432B2, “Method of repairing oxidatively treated hair” (Conopco, Inc., priority 2018, dated 2024).

Columns and labels:
[1] = Denaturation temperature (Td) by DSC of bleached hair after soak in 1% aqueous N-acetyl amino acid solution; set-up: Denaturation Temperature Td (n = 3): unit not given here; details: hair soaked 30 minutes in 1% aqueous solution; for Denaturation Temperature Td (n = 3): DSC, no rinse; for Difference from control (Td): vs Control 1 or Control 2 (twice bleached hair), in °C (unit assumed)
Procedure: Hair that has been damaged has internal protein with a reduced denaturation temperature compared to that of virgin hair. The reduction in denaturation temperature is attributed to a degradation of the internal hair cortex proteins.
Hair damage can be measured in different ways. This invention focusses on the structural integrity of hair cortex proteins, as can be determined by Differential Scanning Calorimetry.
(§1) Hair was bleached for 30 min with Platine Precision White Compact Lightening Powder (L'Oreal Professionnel Paris, Paris, France) mixed with 9% cream peroxide, 30 ‘vol’ (Excel GS Ltd, UK) (60 g of powder mixed with 120 g cream peroxide). Hair was then rinsed with water for 2 minutes. This procedure was repeated on the same hair to produce twice bleached hair.
(§2) In the following examples, compositions A-C are comparative examples and 1-6 are in accordance with the invention. The compositions are 1% aqueous solutions of various N-Acetyl amino acids, prepared by adding the N-acetyl amino acid to water with stirring.
In the following experiments, Control 1 and 2 were from two different batches of twice bleached hair. They were dialysed with water before being used.
(§3) Twice bleached dark brown European hair was soaked for 30 minutes in 1% aqueous solutions of various N-Acetyl amino acids. The hair was then removed from the solution. Clippings from a few fibres were then taken and the denaturation temperature (Td) was measured using DSC.

[2] = Denaturation temperature (Td) by DSC of soaked bleached hair after subsequent rinse step; details: for Difference from control (Td): after soak and 30 seconds rinse, vs Control 1 or Control 2; for Td (n = 3): after soak, rinsed in running water for 30 seconds, DSC
Procedure: as §1, §2, §3
The effect of a subsequent rinse step was determined.
(§4) The switches from experiment 1 were rinsed in running water for 30 seconds.

[3] = Denaturation temperature (Td) by DSC of soaked and rinsed bleached hair after wash with base wash; details: after soak; for Difference from control (Td): rinse and wash with 14% SLES, vs Control (DB) or Control 2; for Td (n = 3): rinse and wash with base wash (14% SLES solution), DSC
Procedure: as §1, §2, §3, §4
The rinsed switches of experiment 2 were washed with base wash (14% SLES solution) and DSC performed.
Hair was washed with a cleansing shampoo using the following method:—
The hair fibres were held under running water for 30 seconds, shampoo applied at a dose of 0.1 ml of shampoo per 1 g of hair and rubbed into the hair for 30 seconds. Excess lather was removed by holding under running water for 30 seconds and the shampoo stage repeated. The hair was rinsed under running water for 1 minute.

Compound | Denaturation Temperature Td (n = 3) [1] | Difference from control (Td) [1] | Difference from control (Td) [2] [°C] | Td (n = 3) [2] | Difference from control (Td) [3] [°C] | Td (n = 3) [3]
CC(=O)N[C@@H](C)C(=O)O [N-Acetyl Alanine] | 156.00 | 7.4 | 4.2 | 152.99 | 2.76 | 151.11
CC(=O)N[C@@H](CCCNC(=N)N)C(=O)O [N-Acetyl Arginine, reference compound] | 148.57 | −0.03 | – | – | – | –
CC(=O)N[C@@H](CS)C(=O)O [N-Acetyl Cysteine, reference compound] | 149.27 | 0.67 | – | – | – | –
CC(=O)N[C@@H](CCC(=O)O)C(=O)O [N-Acetyl Glutamic acid] | 154.69 | 6.09 | 3.89 | 152.67 | 2.9 | 151.26
CC(=O)N[C@@H](CCC(N)=O)C(=O)O [N-Acetyl Glutamine] | 155.15 | 6.55 | 1.97 | 150.75 | 2.5 | 150.85
CC(=O)N[C@@H](Cc1c[nH]cn1)C(=O)O [N-Acetyl Histidine] | 148.08 | 2.51 | 1.64 | 147.76 | 1.93 | 147.65
CSCC[C@H](NC(C)=O)C(=O)O [N-Acetyl Methionine] | 153.36 | 7.79 | 3.85 | 149.97 | 5.42 | 151.14
CC(=O)N1CCC[C@H]1C(=O)O [N-Acetyl Proline] | 154.46 | 5.86 | 2.16 | 150.95 | 1.08 | 149.43
CC(=O)N[C@@H](CO)C(=O)O [N-Acetyl Serine] | 156.25 | 7.65 | 3.02 | 151.80 | – | –
